Assay results from patent EP4671246A1, “6-ALKOXYPYRAZOLOPYRIMIDINE COMPOUND AND PHARMACEUTICAL USE THEREOF” (Japan Tobacco Inc., priority 2023, dated 2024).

biological target: T1, NLRP3 inflammasome (Homo sapiens, UniProt Q96P20); assay: Evaluation of NLRP3 inflammasome inhibitory activity (inhibition of IL-1β production in THP1-Null cells); type: cell-based; conditions: 0.5 µmol/L PMA overnight, 1 µg/mL Lipopolysaccharides 3 hours, Nigericin 7.5 µmol/L 1.5 hours, AlphaLISA Human IL-1β
T1 construct: host or cells: THP1-Null cells (PMA-differentiated, LPS-primed, nigericin-stimulated)
Experimental: The NLRP3 inflammasome inhibitory activity of test compounds were evaluated on the basis of the inhibitory activity of the IL-1β production in THP1-Null cells (Product Number: thp-null, InvivoGen). Cells were maintained for culture in RPMI-1640 media containing 10% (v/v) fetal bovine serum, 25 mmol/L HEPES, 100 U/mL penicillin, 100 µg/mL streptomycin, 100 µg/mL normocin, and 200 µg/mL hygromycin B (set at 37°C, 5% CO2/95% air) .
Cells were suspended with media for assay containing 0.5 µmol/L PMA (RPMI-1640 media containing 10% (v/v) fetal bovine serum, 100 U/mL penicillin, and 100 µg/mL streptomycin), and the suspended cells were seeded on Corning (registered trademark) 384-well Flat Clear Bottom Black Polystyrene TC-treated Microplates (25,000 cells/25 µL/well), followed by incubation (set at 37°C, 5% CO2/95% air) overnight. The supernatant of the culture was removed, and thereto was added media for assay (25 µL/well) containing 1 µg/mL Lipopolysaccharides (Product Number: L2654, Sigma-Aldrich (registered trademark)). Then, the culture was further incubated for 3 hours (set at 37°C, 5% CO2/95% air) . The supernatant of the culture was removed. Then, a vehicle solution prepared from Opti-MEM (trademark) medium (Product Number: 31985-070, Invitrogen) was added to blank-setting wells and control-setting wells (20 µL/well), followed by incubation for 15 minutes (set at 37°C, 5% CO2/95% air). A solution containing a test compound (20 µL/well) was added to test compound-setting wells. Further, Opti-MEM (trademark) medium containing Nigericin (Product Number: N7143, Sigma-Aldrich (registered trademark)) was added to the control-setting wells and test compound-setting wells (5 µL/well), followed by incubation for 1.5 hours (set at 37°C, 5% CO2/95% air). The final concentration of Nigericin was adjusted to be 7.5 µmol/L. 5 µL/well of Opti-MEM (trademark) medium was added to the blank-setting wells. The supernatant of the culture was cryonically stored (set at -20°C) until measurement of IL-1β.
The amount of IL-1β in the culture supernatant was quantitated with AlphaLISA (registered trademark) Human IL-1β Detection Kit (Product Number: AL220C, Perkin Elmer). Fluorescence intensity was measured with a microplate reader EnSpier (Model number: 2300-00J, Perkin Elmer) or EnSight (Model number: HH34000000, Perkin Elmer) according to procedure manuals attached thereto. Inhibition rates of the test compound-setting wells were calculated on the basis of 100% for the blank-setting wells and 0% for the control-setting wells. IC50 values (i.e., 50% inhibitory concentrations) of the test compounds were calculated by logistic regression analysis.

T1 sequence (Q96P20 whole entry): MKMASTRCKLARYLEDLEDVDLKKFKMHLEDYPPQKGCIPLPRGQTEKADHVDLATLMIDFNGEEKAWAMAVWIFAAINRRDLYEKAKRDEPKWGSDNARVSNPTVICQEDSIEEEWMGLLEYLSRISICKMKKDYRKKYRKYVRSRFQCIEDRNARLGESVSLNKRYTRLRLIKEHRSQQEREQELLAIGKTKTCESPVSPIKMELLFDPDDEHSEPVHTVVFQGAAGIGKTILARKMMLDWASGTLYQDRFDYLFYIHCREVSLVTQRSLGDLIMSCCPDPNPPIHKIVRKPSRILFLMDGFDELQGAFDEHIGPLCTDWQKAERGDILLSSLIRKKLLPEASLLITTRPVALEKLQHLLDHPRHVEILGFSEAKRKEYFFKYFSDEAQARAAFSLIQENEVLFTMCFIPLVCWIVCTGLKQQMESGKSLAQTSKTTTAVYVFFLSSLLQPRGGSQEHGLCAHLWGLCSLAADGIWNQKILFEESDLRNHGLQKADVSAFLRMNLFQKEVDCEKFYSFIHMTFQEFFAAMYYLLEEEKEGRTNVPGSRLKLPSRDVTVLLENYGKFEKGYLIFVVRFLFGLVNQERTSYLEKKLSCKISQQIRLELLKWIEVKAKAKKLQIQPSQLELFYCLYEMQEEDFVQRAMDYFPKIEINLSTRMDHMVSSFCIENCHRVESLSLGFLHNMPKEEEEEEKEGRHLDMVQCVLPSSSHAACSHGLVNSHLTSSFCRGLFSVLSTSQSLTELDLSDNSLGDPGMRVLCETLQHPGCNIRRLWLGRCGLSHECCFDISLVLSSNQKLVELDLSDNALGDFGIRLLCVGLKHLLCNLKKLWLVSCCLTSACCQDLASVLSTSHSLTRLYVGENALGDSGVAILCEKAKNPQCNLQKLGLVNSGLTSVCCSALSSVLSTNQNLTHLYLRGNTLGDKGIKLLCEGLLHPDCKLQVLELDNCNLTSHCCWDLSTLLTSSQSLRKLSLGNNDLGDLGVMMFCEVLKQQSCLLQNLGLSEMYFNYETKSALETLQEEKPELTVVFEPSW

Q: How did the IC50 turn out when `COc1nc2nn(-c3ccc(Br)cc3C)cc2c(=O)[nH]1` [Example 69] was run?
A: The IC50 was 57 nM.

Q: How did the IC50 turn out when `CCc1cc(Br)ccc1-n1cc2c(=O)[nH]c(OC)nc2n1` [Example 70] was run?
A: The IC50 was 25 nM.

Q: `COc1nc2nn(-c3c(C)cc(C(C)(F)F)cc3C)cc2c(=O)[nH]1` [Example 71] was tested. Which IC50 did it give?
A: The IC50 was 42 nM.

Q: With `Cc1cc(Br)cc(C)c1-n1cc2c(=O)[nH]c(OCCC3CCOCC3)nc2n1` [Example 72] as the compound, how does the IC50 read?
A: The IC50 was 27 nM.

Q: How did the IC50 turn out when `Cc1cc(C2CC2)cc(C)c1-n1cc2c(=O)[nH]c(OCCC3CCOCC3)nc2n1` [Example 73] was run?
A: The IC50 was 18 nM.

Q: Which IC50 does the source give for `Cc1cc(C2CC2)cc(C)c1-n1cc2c(=O)[nH]c(OCCCS(=O)(=O)C(C)(C)C)nc2n1` [Example 74] here?
A: Its IC50 is 3 nM.

Q: For `COc1nc2nn(-c3c(F)cc(F)cc3Cl)cc2c(=O)[nH]1` [Example 75], which IC50 is on record?
A: Its IC50 is 1300 nM.

Q: Which IC50 does the source give for `COc1cc(F)c(-n2cc3c(=O)[nH]c(OC)nc3n2)c(Cl)c1` [Example 76] here?
A: The IC50 was 74 nM.

Q: Which IC50 does the source give for `COc1nc2nn(-c3c(Cl)cc(F)cc3OC)cc2c(=O)[nH]1` [Example 77] here?
A: The IC50 was 2400 nM.

Q: For `COc1nc2nn(-c3c(C)cc(OC(F)F)cc3Cl)cc2c(=O)[nH]1` [Example 78], which IC50 is on record?
A: The IC50 was 40 nM.

Q: How did the IC50 turn out when `COc1nc2nn(-c3c(C)cc(C4CC4)cc3C)c(I)c2c(=O)[nH]1` [Example 79] was run?
A: Its IC50 is 8 nM.

Q: How did the IC50 turn out when `CCc1cc(C2CC2)ccc1-n1cc2c(=O)[nH]c(OC)nc2n1` [Example 80] was run?
A: The IC50 was 17 nM.

Q: `COc1nc2nn(-c3ccc(Br)cc3C(C)C)cc2c(=O)[nH]1` [Example 81] was tested. Which IC50 did it give?
A: The IC50 was 58 nM.

Q: For `COc1nc2nn(-c3cc4c(cc3Cl)OCC4)cc2c(=O)[nH]1` [Example 82], which IC50 is on record?
A: The IC50 was 75 nM.

Q: Which IC50 does the source give for `COc1nc2nn(-c3c(C)cc(C4CC4)cc3Cl)cc2c(=O)[nH]1` [Example 83] here?
A: The IC50 was 8 nM.

Q: `COc1nc2nn(-c3c(C)cc(C(C)(F)F)cc3Cl)cc2c(=O)[nH]1` [Example 84] was tested. Which IC50 did it give?
A: Its IC50 is 45 nM.

Q: For `CCc1cc(Br)cc(C)c1-n1cc2c(=O)[nH]c(OC)nc2n1` [Example 85], which IC50 is on record?
A: The IC50 was 12 nM.

Q: With `CCc1cc(OC)cc(C)c1-n1cc2c(=O)[nH]c(OC)nc2n1` [Example 86] as the compound, how does the IC50 read?
A: Its IC50 is 49 nM.

Q: `COCc1cc(C)c(-n2cc3c(=O)[nH]c(OC)nc3n2)c(C)c1` [Example 87] was tested. Which IC50 did it give?
A: The IC50 was 1200 nM.

Q: `COCc1cc(Br)cc(C)c1-n1cc2c(=O)[nH]c(OC)nc2n1` [Example 88] was tested. Which IC50 did it give?
A: The IC50 was 44 nM.

Q: Which IC50 does the source give for `CCc1cc(C(C)(F)F)cc(C)c1-n1cc2c(=O)[nH]c(OC)nc2n1` [Example 89] here?
A: Its IC50 is 24 nM.

Q: Which IC50 does the source give for `COc1nc2nn(-c3c(C)cc(F)cc3C)cc2c(=O)[nH]1` [Example 90] here?
A: The IC50 was 740 nM.

Q: How did the IC50 turn out when `CCc1c2c(=O)[nH]c(OC)nc2nn1-c1c(C)cc(OC)cc1C` [Example 91] was run?
A: The IC50 was 140 nM.

Q: `COCc1cc(C2CC2)cc(C)c1-n1cc2c(=O)[nH]c(OC)nc2n1` [Example 92] was tested. Which IC50 did it give?
A: The IC50 was 21 nM.

Q: Which IC50 does the source give for `COCc1cc(OC)cc(C)c1-n1cc2c(=O)[nH]c(OC)nc2n1` [Example 93] here?
A: The IC50 was 230 nM.

Q: How did the IC50 turn out when `CCOc1cc(C)c(-n2cc3c(=O)[nH]c(OC)nc3n2)c(C)c1` [Example 94] was run?
A: The IC50 was 200 nM.

Q: How did the IC50 turn out when `COc1cc(C)c(-n2nc3nc(OC)[nH]c(=O)c3c2C2CC2)c(C)c1` [Example 95] was run?
A: The IC50 was 68 nM.

Q: `COc1nc2nn(-c3c(C)cc(Br)c(OC)c3C)cc2c(=O)[nH]1` [Example 96] was tested. Which IC50 did it give?
A: The IC50 was 430 nM.

Q: With `COc1nc2nn(-c3cc(C)ccc3C(F)(F)F)cc2c(=O)[nH]1` [Example 97] as the compound, how does the IC50 read?
A: Its IC50 is 1200 nM.

Q: For `COc1nc2nn(-c3c(C(F)(F)F)nn(C(C)C)c3C)cc2c(=O)[nH]1` [Example 98], which IC50 is on record?
A: Its IC50 is 500 nM.

Q: How did the IC50 turn out when `Cc1cc(Br)cc(C)c1-n1cc2c(=O)[nH]c(OCCCO)nc2n1` [Example 99] was run?
A: The IC50 was 12 nM.

Q: With `COc1nc2nn(-c3c(C)cc(OC)c(Br)c3C)cc2c(=O)[nH]1` [Example 100] as the compound, how does the IC50 read?
A: The IC50 was 690 nM.

Q: `COc1nc2nn(-c3c(C)cc(Br)cc3C#N)cc2c(=O)[nH]1` [Example 101] was tested. Which IC50 did it give?
A: The IC50 was 2400 nM.

Q: How did the IC50 turn out when `Cc1c(-n2cc3c(=O)[nH]c(OCC4CC4)nc3n2)c(C(F)(F)F)nn1C(C)C` [Example 102] was run?
A: Its IC50 is 670 nM.

Q: With `COc1nc2nn(-c3cc4c(cc3Cl)OCCC4)cc2c(=O)[nH]1` [Example 103] as the compound, how does the IC50 read?
A: The IC50 was 110 nM.

Q: How did the IC50 turn out when `COc1nc2nn(-c3c(C)cc(Br)cc3OC(F)F)cc2c(=O)[nH]1` [Example 104] was run?
A: The IC50 was 13 nM.

Q: Which IC50 does the source give for `COc1nc2nn(-c3c(C)cc(C4CC4)cc3OC(F)F)cc2c(=O)[nH]1` [Example 105] here?
A: Its IC50 is 14 nM.

Q: With `Cc1cc(C2CC2)cc(C)c1-n1cc2c(=O)[nH]c(OCC(F)(F)CO)nc2n1` [Example 106] as the compound, how does the IC50 read?
A: The IC50 was 29 nM.

Q: With `COCCOc1nc2nn(-c3c(C)cc(Br)cc3C)cc2c(=O)[nH]1` [Example 107] as the compound, how does the IC50 read?
A: The IC50 was 23 nM.

Q: `Cc1cc(Br)cc(C)c1-n1cc2c(=O)[nH]c(OCCC(C)(C)C#N)nc2n1` [Example 109] was tested. Which IC50 did it give?
A: The IC50 was 67 nM.

Q: For `COCc1cc(OC(F)F)cc(C)c1-n1cc2c(=O)[nH]c(OC)nc2n1` [Example 110], which IC50 is on record?
A: Its IC50 is 210 nM.

Q: `Cc1cc(Br)cc(C)c1-n1cc2c(=O)[nH]c(OC[C@H]3CCOC3)nc2n1` [Example 111] was tested. Which IC50 did it give?
A: The IC50 was 50 nM.

Q: With `Cc1cc(Br)cc(C)c1-n1cc2c(=O)[nH]c(OC[C@@H]3CCOC3)nc2n1` [Example 112] as the compound, how does the IC50 read?
A: Its IC50 is 38 nM.

Q: With `Cc1cc(Br)cc(C)c1-n1cc2c(=O)[nH]c(OCCCCO)nc2n1` [Example 113] as the compound, how does the IC50 read?
A: The IC50 was 14 nM.

Q: For `Cc1cc(Br)cc(C)c1-n1cc2c(=O)[nH]c(OCCCC#N)nc2n1` [Example 114], which IC50 is on record?
A: Its IC50 is 19 nM.

Q: For `COc1nc2nn(-c3c(C)cc(Br)cc3CF)cc2c(=O)[nH]1` [Example 115], which IC50 is on record?
A: The IC50 was 13 nM.

Q: Which IC50 does the source give for `Cc1cc(C2CC2)cc(C)c1-n1cc2c(=O)[nH]c(OCCCO)nc2n1` [Example 116] here?
A: Its IC50 is 11 nM.

Q: With `Cc1cc(C2CC2)cc(C)c1-n1cc2c(=O)[nH]c(OCCC(C)(C)C#N)nc2n1` [Example 117] as the compound, how does the IC50 read?
A: Its IC50 is 31 nM.

Q: For `COc1nc2nn(-c3c(C)cc(C(C)(C)F)cc3C)cc2c(=O)[nH]1` [Example 118], which IC50 is on record?
A: The IC50 was 73 nM.

Q: Which IC50 does the source give for `COc1nc2nn(-c3c(C)cc(C4CC4)cc3C)c(C#N)c2c(=O)[nH]1` [Example 119] here?
A: Its IC50 is 23 nM.

Q: Which IC50 does the source give for `Cc1cc(Br)cc(C)c1-n1cc2c(=O)[nH]c(OC3COC3)nc2n1` [Example 121] here?
A: The IC50 was 2400 nM.
